The results in this text go back to patent US7582767B2 (Biovitrum AB (publ.), priority 2005, dated 2009).

The target in experiment [1] is T1, human 5-HT6 receptor (Homo sapiens, UniProt P50406).
T1 construct: expressed in transfected cells; host or cells: HEK293
Nature of the experiment: 5-HT6 binding assay ([3H]-LSD, SPA, membranes of transfected HEK293 cells).

Experiment [2] addresses T1, human 5-HT6 receptor. Nature of the experiment: 5-HT6 intrinsic activity assay (inhibition of 5-HT induced increase in cAMP). In kind it is cell-based.
The next experiment addresses T2, 5-HT1a (Homo sapiens, UniProt P08908).
T2 sequence (P08908 1-422): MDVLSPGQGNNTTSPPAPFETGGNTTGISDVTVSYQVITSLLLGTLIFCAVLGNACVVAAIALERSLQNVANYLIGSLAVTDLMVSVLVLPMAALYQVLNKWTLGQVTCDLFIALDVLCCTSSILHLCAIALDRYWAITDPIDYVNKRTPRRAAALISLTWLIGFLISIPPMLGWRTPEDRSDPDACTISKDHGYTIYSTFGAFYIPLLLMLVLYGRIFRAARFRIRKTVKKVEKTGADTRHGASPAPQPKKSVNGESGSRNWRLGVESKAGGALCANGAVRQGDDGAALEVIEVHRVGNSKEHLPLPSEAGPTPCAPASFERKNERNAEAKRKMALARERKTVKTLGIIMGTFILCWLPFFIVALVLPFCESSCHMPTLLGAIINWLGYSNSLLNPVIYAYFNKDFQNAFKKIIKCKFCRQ
As to the kind of experiment: Selectivity binding 5-HT1a. Particulars: read-out: 5-HT1a Selectivity Binding (Ki).

A further experiment concerns the target 5-HT1b (Homo sapiens, UniProt P28222). As to the kind of experiment: Selectivity binding 5-HT1b. Particulars: read-out: 5-HT1b Selectivity Binding (Ki).
A further experiment concerns the target 5-HT2a (Homo sapiens, UniProt P28223). Nature of the experiment: Selectivity binding 5-HT2a. Conditions: read-out: 5-HT2a Selectivity Binding (Ki).
For another experiment, the target named is 5-HT2b (Homo sapiens, UniProt P41595). As to the kind of experiment: Selectivity binding 5-HT2b.
5-HT2b, sequence (P41595 whole entry, species assumed): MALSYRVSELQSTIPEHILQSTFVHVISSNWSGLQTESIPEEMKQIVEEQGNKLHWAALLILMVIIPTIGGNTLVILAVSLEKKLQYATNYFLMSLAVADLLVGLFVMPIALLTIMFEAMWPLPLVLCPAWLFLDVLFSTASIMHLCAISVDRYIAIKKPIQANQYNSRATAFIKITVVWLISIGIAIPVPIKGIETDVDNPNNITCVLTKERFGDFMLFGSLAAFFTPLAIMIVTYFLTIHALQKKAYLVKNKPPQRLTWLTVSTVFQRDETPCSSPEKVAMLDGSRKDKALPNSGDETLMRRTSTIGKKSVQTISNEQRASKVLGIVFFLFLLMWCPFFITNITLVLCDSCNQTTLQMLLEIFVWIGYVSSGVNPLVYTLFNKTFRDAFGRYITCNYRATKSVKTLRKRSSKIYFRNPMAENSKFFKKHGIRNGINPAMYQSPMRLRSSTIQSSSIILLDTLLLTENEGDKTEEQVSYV
The next experiment has as its target T3, 5-HT2c (Homo sapiens, UniProt P28335).
T3 sequence (P28335 33-458): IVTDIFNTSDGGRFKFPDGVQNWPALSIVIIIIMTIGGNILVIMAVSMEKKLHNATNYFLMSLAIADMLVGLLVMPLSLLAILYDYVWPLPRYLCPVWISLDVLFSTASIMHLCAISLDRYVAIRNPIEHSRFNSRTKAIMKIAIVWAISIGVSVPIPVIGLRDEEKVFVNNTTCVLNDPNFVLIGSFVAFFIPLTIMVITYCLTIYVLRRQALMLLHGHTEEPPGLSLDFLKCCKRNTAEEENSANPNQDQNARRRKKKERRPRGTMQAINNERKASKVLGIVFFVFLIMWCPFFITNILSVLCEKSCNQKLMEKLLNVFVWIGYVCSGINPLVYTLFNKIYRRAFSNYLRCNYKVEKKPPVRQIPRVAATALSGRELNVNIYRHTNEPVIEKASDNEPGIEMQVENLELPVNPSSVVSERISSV
Nature of the experiment: Selectivity binding 5-HT2c. Particulars: read-out: 5-HT2c Selectivity Binding (Ki).

A further experiment concerns the target T4, β1 (Homo sapiens, UniProt P08588).
T4 construct: expressed in transfected cells; host or cells: HEK-293 cells
As to the kind of experiment: β1 binding (human recombinant, HEK-293 cells).

For another experiment, the target named is T5, β2 (Homo sapiens, UniProt P07550).
T5 construct: expressed in transfected cells; host or cells: Sf9 cells
T5 sequence (P07550 whole entry): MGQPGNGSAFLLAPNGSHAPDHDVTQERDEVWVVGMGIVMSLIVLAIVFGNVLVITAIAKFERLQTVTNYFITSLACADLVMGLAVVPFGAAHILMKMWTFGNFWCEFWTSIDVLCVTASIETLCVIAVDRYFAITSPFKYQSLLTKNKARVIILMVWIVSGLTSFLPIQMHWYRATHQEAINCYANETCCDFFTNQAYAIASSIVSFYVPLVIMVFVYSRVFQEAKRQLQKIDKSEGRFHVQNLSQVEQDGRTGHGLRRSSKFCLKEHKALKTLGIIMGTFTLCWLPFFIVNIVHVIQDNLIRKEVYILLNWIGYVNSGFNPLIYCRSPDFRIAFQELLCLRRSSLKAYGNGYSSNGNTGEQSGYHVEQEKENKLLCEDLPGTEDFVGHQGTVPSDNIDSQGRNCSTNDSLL
As to the kind of experiment: β2 binding (human recombinant, Sf9 cells).

The next experiment addresses T6, κ (KOP) (Cavia porcellus, UniProt P41144).
T6 construct: Guinea-pig cerebellum; from tissue; host or cells: guinea-pig cerebellum
As to the kind of experiment: κ (KOP) binding (guinea-pig cerebellum). Conditions: 1 μM.

The target in a further experiment is T7, 5-HT3 (Homo sapiens, UniProt P46098).
T7 construct: expressed in transfected cells; host or cells: HEK-293 cells
T7 sequence (P46098 24-478): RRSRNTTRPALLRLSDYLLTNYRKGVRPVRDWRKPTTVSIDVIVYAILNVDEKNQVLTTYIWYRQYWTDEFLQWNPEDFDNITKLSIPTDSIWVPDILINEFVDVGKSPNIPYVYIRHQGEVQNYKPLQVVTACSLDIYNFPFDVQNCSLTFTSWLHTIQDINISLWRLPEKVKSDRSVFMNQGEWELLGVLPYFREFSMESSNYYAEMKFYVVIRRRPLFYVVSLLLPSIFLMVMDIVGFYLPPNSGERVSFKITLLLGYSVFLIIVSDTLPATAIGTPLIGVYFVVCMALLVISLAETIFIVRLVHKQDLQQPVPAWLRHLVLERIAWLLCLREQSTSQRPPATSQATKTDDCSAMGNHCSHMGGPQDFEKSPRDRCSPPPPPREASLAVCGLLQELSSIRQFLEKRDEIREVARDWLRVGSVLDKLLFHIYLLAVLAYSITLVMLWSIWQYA
Nature of the experiment: 5-HT3 binding (human recombinant, HEK-293 cells). Particulars: 1 μM.

Setting [3] is: competition with 3 nM [3H] LSD, HEK293 membranes, read-out: 5-HT6 Binding (Ki).

Counter-ions that a name gives are not always drawn.

T1 sequence (P50406 whole entry): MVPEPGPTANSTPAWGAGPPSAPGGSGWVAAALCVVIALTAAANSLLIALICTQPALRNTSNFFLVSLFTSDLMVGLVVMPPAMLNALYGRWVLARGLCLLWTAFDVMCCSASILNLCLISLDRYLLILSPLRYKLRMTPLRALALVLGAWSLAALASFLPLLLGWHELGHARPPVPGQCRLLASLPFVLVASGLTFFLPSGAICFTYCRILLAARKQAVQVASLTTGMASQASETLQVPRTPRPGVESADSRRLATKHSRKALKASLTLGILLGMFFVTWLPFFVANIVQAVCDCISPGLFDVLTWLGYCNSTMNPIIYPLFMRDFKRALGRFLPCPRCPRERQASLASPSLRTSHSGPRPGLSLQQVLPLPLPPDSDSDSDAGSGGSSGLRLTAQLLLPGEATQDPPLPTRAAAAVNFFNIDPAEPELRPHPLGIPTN
5-HT2a, sequence (P28223 whole entry, species assumed): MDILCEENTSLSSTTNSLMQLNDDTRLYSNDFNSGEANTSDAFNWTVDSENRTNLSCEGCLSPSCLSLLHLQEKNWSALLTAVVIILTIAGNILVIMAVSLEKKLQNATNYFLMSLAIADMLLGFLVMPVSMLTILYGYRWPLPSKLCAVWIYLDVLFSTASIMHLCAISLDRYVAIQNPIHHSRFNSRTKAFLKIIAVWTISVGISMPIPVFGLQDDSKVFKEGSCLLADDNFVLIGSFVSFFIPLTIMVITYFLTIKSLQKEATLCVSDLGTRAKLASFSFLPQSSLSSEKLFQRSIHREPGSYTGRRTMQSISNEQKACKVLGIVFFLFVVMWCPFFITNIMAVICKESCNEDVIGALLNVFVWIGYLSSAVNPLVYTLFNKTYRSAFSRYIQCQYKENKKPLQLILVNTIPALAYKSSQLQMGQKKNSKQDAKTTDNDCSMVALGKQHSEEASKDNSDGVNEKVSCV
T6 sequence (P41144 whole entry): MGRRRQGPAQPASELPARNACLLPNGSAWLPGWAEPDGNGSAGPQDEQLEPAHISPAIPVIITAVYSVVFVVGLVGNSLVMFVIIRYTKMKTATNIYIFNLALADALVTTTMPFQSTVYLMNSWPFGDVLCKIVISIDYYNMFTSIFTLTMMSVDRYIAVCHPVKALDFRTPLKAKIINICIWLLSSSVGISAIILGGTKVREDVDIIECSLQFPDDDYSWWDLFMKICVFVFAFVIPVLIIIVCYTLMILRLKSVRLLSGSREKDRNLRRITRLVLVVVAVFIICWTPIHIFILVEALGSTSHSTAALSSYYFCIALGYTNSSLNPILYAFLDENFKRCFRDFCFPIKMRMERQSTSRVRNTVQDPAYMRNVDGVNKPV
T4 sequence (P08588 whole entry): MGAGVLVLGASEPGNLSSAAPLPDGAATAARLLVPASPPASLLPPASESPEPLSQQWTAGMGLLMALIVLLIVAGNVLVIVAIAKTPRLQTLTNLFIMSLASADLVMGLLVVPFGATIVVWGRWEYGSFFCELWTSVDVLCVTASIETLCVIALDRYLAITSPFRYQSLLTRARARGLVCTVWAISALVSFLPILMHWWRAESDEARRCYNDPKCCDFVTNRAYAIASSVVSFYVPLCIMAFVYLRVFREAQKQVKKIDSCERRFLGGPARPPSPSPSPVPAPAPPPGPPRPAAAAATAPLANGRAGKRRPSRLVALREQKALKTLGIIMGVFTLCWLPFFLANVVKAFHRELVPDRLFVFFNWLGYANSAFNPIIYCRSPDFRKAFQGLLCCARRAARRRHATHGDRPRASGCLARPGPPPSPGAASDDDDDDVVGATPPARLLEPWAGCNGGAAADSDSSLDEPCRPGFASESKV
5-HT1b, sequence (P28222 whole entry, species assumed): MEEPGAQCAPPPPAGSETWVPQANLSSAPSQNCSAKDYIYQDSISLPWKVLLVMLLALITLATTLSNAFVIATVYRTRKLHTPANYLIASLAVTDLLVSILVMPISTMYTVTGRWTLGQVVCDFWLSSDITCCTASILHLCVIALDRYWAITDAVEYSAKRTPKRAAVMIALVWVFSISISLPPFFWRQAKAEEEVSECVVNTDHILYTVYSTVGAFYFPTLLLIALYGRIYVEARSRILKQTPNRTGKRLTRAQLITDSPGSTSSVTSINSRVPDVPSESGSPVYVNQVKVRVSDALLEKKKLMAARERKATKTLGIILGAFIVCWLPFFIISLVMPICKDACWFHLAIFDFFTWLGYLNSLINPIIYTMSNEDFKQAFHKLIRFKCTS

As usually defined, the Ki is a dissociation constant, usually derived from enzyme kinetics or from competition with a known ligand. On to `Cl.O=S(=O)(Nc1cc(OC2CCNCC2)c2occc2c1)c1ccc(Cl)s1` [Compound A, 5-chlorothiophene-2-sulphonic acid, [7-(piperidin-4-yloxy)-benzofuran-5-yl]amide, hydrochloride], for which the Ki at human 5-HT6 receptor [1] (setting [3]) was 9 nM; at human 5-HT6 receptor [2] it was 6 nM; at 5-HT1a, 1520 nM; on 5-HT1b it was 1470 nM; at 5-HT2a, more than 1000 nM; on 5-HT2b it was 356 nM. The Ki at 5-HT2c was more than 1000 nM. Besides, the “β1 Binding % inihibition 1 μM” value on β1 was found to be 80%. Further, the “β2 Binding % inihibition 1 μM” value on β2 came to 89%. The “κ (KOP) Binding % inihibition 1 μM” value at κ (KOP) turned out to be 71%. Moreover, the “5-HT3 Binding % inihibition 1 μM” value on 5-HT3 was found to be 90%.
As for `COc1ccc(C)cc1NS(=O)(=O)c1cc(OC2CCCNC2)c2occc2c1` (centres unmarked) [Compound D], the Ki came out at 14 nM at human 5-HT6 receptor [1]; 37 nM at human 5-HT6 receptor [2]; 917 nM on 5-HT2a; 1450 nM at 5-HT2b; 1370 nM on 5-HT2c.
`CN1C[C@@H](NS(=O)(=O)N(C)C)C[C@@H]2c3cccc4c3c(cn4C)C[C@H]21` [mesulergide]: the Ki at human 5-HT6 receptor [1] (setting [3]) is 1970 nM.
With `O=S(=O)(Nc1cc(N2CCNCC2)c2occc2c1)c1cccc2ccccc12` [Ex. 148, N-(7-piperazin-1-yl-benzofuran-5-yl)-1-naphthylsulphonamide, hydrochloride], the Ki at human 5-HT6 receptor [1] (setting [3]) is 0.18 nM; at human 5-HT6 receptor [2], 6 nM; on 5-HT2a, 412 nM; on 5-HT2b it was 19.7 nM; at 5-HT2c, 158 nM.
With `O=S(=O)(Nc1cc(OC2CCNCC2)c2occc2c1)c1ccccc1C(F)(F)F` [Compound B, N-[7-(4-piperidinyloxy)-1-benzofuran-5-yl]-2-trifluoromethylbenzenesulphonamide], the inhibition constant Ki at human 5-HT6 receptor [1] (setting [3]) is 4 nM; on human 5-HT6 receptor [2], 3 nM; on 5-HT1a, more than 1000 nM; on 5-HT1b, 1290 nM; on 5-HT2a, more than 1000 nM; at 5-HT2b, 545 nM. The Ki on 5-HT2c was more than 1000 nM. Further, at β1, the “β1 Binding % inihibition 1 μM” value is reported as 82%. The “β2 Binding % inihibition 1 μM” value at β2 turned out to be 82%. Also, the “κ (KOP) Binding % inihibition 1 μM” value on κ (KOP) is on record as 83%. Moreover, the “5-HT3 Binding % inihibition 1 μM” value on 5-HT3 is 91%.
As for `COc1cccc(C)c1NS(=O)(=O)c1cc(OC2CCNCC2)c2occc2c1` [Compound C], the Ki amounted to 26 nM on human 5-HT6 receptor [1]; 51 nM on human 5-HT6 receptor [2]; 1000 nM on 5-HT2a; 600 nM on 5-HT2b; 1250 nM on 5-HT2c.
